Assay results taken from patent US20240201205A1, “METHOD FOR DETECTING NEUROLOGICAL DISEASES USING SUPRAMOLECULE POLYMER THERAPEUTICS” (The Regents of the University of California, priority 2022, published 2024).

These molecules were tested against T1, α-synuclein fibrils isolated from an MSA patient sample (Homo sapiens, UniProt P37840) (assay: Cryo-EM co-structures of compounds with α-synuclein fibrils from MSA patient). Conditions: fibrils from MSA patient sample; 20 μM ligand.
T1 construct: fresh-frozen tissue from the cerebellum of patients clinically and neuropathologically diagnosed with MSA; from tissue; host or cells: cerebellum of MSA patients (sarkosyl-insoluble filament preparation)
Assay type: binding
Procedure: MSA filament purification. Filament purification was based on Schweigenhauser et al., 2020^2. Briefly, 1-2 g of fresh-frozen tissue from the cerebellum of patients clinically and neuropathologically diagnosed with MSA was homogenized at 20 mL/g of tissue in 10 mM Tris-HCl (pH 7.4), 800 mM NaCl, 1 mM EGTA, and 10% sucrose. A final concentration of 1% N-laurosarcosinate (w/v) was added to the homogenates, and these mixtures were incubated at 37° C. for 30 minutes. Homogenates were then centrifuged at 10,000 g for 10 minutes, and the supernatant was kept and then centrifuged at 100,000 g for 20 minutes. The pellets were resuspended at 500 μL/g of frozen tissue in 10 mM Tris-HCl (pH 7.4), 800 mM NaCl, 1 mM EGTA, and 10% sucrose. This was followed by another centrifugation at 3,000 g for 5 minutes. The supernatant was kept and diluted threefold with 50 mM Tris-HCl (pH 7.4), 150 mM NaCl, 10% sucrose, and 2% sarkosyl, followed by another centrifugation at 150,000 g for 1 hour. The final pellet resuspended in 30 mM Tris-HCl (pH 7.4) at a concentration of 100 μL/g frozen tissue.
Cryo-EM sample preparation and data collection. Purified frontal cortex and cerebellum tissue was incubated with 20 μM ligand for 45 minutes prior to freezing. For the tau PHF, 3 μL of purified filaments mixed with GTP-1 was added to a glow-discharged 200 mesh 1.2/1.3R Au Quantifoil grid for 10 seconds before blotting for 2 seconds, and then a second 3 μL aliquot was added for 3 seconds and blotted for 1 second before being plunge frozen in liquid ethane using a FEI Vitrobot Mark IV (Thermo Fisher Scientific). For the synuclein ligands, 3 μL of purified filaments mixed with compound was added to a 200 mesh 1.2/1.3R Au Quantifoil grid coated with a 2 nm thick layer of carbon, which had not been glow discharged. After 30 seconds, grids were blotted for 7.5 seconds at room temperature and 100% humidity. Grids were plunge frozen in liquid ethane using a FEI Vitrobot Mark IV. […] A defocus range of 0.8 to 1.8 μm was used with a total exposure time of 2.024 seconds fractionated into 0.025 seconds subframes. The total dose for each movie was 46 electrons/Å^2. Movies were motion-corrected using MotionCor2^3 in Scipion^4 and were Fourier cropped by a factor of 2 to a final pixel size of 0.834 Å per pixel.
Image processing. All image processing was done in RELION 4^5, and the same workflow was used for each dataset. Dose-weighted summed micrographs were imported into RELION 4. The contrast transfer function was estimated using CTFFIND-4.1^6. Filaments were manually picked and then segments were extracted with a box size of 900 pixels downscaled to 300 pixels. Contaminants and segments contributing to straight filaments were separated out using reference-free 2D class averaging. The remaining segments were re-extracted with a box size of 288 pixels without downscaling. An initial model was generated from a cylinder in RELION. One or more rounds of 3D classification with image alignment were performed, with helical rise and […] parameters fixed to eliminate obvious junk particles. One or more rounds of 3D auto-refinement was run using the best map from 3D classification low-pass filtered to 10 Å, allowing rise and twist parameters to vary. Maps were sharpened using the standard post-processing procedures in RELION.
Model building, refinement, and analysis. Prior to ligand placement, a single strand of a previously solved MSA or tau PHF filament structure^2 (PDB: 6XYQ) was refined against the density using Phenix^7. Refinement of the ligand binding pocket was done in COOT^8. Ligands were placed by hand in the density using Chimera^9. This model was then translated to give a stack spanning 5 rungs.

Compound | binding to α-synuclein fibrils (cryo-EM co-structure)
CNc1nc(=O)n(-c2nc(-c3cc(C)cc(C)n3)oc2-c2ccc(F)c(F)c2)cc1F [compound 294] | bound to fibrils isolated from an MSA patient sample
O=c1nc2c(ccn2C(F)(F)F)cn1-c1nc(-c2ccnc(C3CC3)n2)oc1-c1ccc(F)cc1 [compound 293] | bound to fibrils isolated from an MSA patient sample
Cc1nccc2cc(-c3nc(-n4ccc5cccnc5c4=O)c(-c4ccc(C(F)(F)F)cc4)o3)ccc12 [compound 427] | bound to fibrils isolated from an MSA patient sample
O=C(Cn1cc(-c2ccoc2)c(=O)c2ccc(N3CCCC3)cc21)Nc1ccccc1C(F)(F)F [Compound 149, 2-[3-(furan-3-yl)-4-oxo-7-(pyrrolidin-1-yl)-1,4-dihydroquinolin-1-yl]-N-[2-(trifluoromethyl)phenyl]acetamide] | bound to fibrils isolated from an MSA patient sample
CNc1nc(=O)n(-c2nc(-c3cccc(Cl)c3)oc2-c2ccc(Cl)c(F)c2)cc1F [Compound 125, 1-(5-(4-chloro-3-fluorophenyl)-2-(3-chlorophenyl)oxazol-4-yl)-5-fluoro-4-(methylamino)pyrimidin-2(1H)-one] | bound to fibrils isolated from an MSA patient sample

These molecules were tested against T2, YFP-tagged full length 0N4R-Tau carrying a P301S mutation (T24 cells) (Homo sapiens, UniProt P10636, P618S) (assay: Tau-AD high throughput screening (counter screen)). Conditions: final test concentration of 10 μM; T24 cells transfected with 416-AD11A lysate; 72 h; control is DMSO.
T2 construct: C-terminally YFP-tagged full length 0N4R-Tau carrying a P301S mutation (T24 cells); expressed in transfected cells
Assay type: cell-based
Procedure: A fragment of the Middle Tempral Gyrus (MTG) from Alzheimer's Disease (AD) patient 2217 was resuspended in 9 volumes of PBS (ml/g of brain) and homogenized 3×12 seconds using a probe homogenizer (Thomas Scientific) with disposable Omni Tip plastic homogenizing probes (Thomas Scientific Cat No 3409Y77) to generate a 10% brain homogenate (10% AD11-BH). The 10% AD11-BH was clarified of insoluble debris by centrifugation at 800×g for 5 minutes. The resulting supernatant was collected and the protein concentration of this clarified BH (AD11-CBH) was determined by bicinchoninic acid assay (BCA) (Thermo Fisher Cat No. 23227). HEK293 cells stably expressing a C-terminally Clover-tagged truncated 4R-Tau^243-382 transgene containing the P301L and V337M mutations and a C-terminally Ruby-tagged truncated 3R-Tau^243-382 transgene containing the L266V and V337M mutations (128/139 cells) were transfected with the AD11-CBH using lipofectamine 2000 (LF2K) (Thermo Fisher Cat No. 11668500). Briefly, 0.32 μl of LF2K were diluted in 5 μl Opti-MEM (Thermo Scientific Cat No 31985070) per well of a 384-well plate and incubated for 5 min at room temperature (RT). This mixture was added to 0.32 μg of AD11-CBH diluted in 5 μl of PBS per well of a 384-well plate and vortex briefly. The transfection mixture was incubated at room temperature for 90 min. The transfection complexes were subsequently added to a single well of a 384-well plate containing 3500 128/139 cells. After 3 days the cells were harvested, counted and plated at a density of 1 cell/well in a 96-well plate. A clonal cell line containing Clover and Ruby positive Tau aggregates was selected and termed 416-AD11A cells. Following the expansion of these 416-AD11A cells, a cell lysate was prepared by freeze/thaw. The cells from a confluent T175 flask were harvested in 1 ml of PBS containing 1× protease inhibitor cocktail by scraping. The cell suspension was subjected to 4 cycles of freezing in liquid nitrogen for 5 minutes followed by thawing at 37° C. for 5 minutes. The resulting cell lysate was centrifuged at 2000 RPM for 10 minutes to remove the cell debris and the protein concentration of the resulting 416-AD11A lysate was determined by BCA assay and aliquots frozen for future use.
HEK293 cells stably expressing C-terminally YFP-tagged full length 0N4R-Tau carrying a P301S mutation (T24 cells) are plated at a density of 4000 cells per well of a 384-well black walled, clear bottom plate (Greiner Cat No 5678-1091Q) in 60 μl of complete DMEM (DMEM (Corning Cat No 10-013-CV), 10% FBS (VWR Cat No 97068-085, 0.5% Penicillin/streptomycin (Gibco Cat No 15140-122)) containing 0.1 μg/ml Hoechst Dye (Thermo Scientific Cat No H3570). Transfection complexes are prepared by diluting 0.15 μg of 416-AD11A lysate or HEK lysate in 5 μl of PBS per well to be transfected and 0.15 μl of Lipofectamine 2000 (LF2K) (ThermoFisher Cat No 11668500) in 5 μl of Opti-MEM per well to be transfected in separate tubes. The pre-diluted 416-AD11A or HEK lysates and LF2K are subsequently mixed and allowed to incubate for 90 minutes at RT. A 10 μl aliquot of the 416-AD11A or HEK transfection complexes is added to the appropriate wells of the 384-well plate containing the T24 cells using the Bravo liquid handling platform (Agilent). Wells A23-P24 of the 384-well plate are transfected with HEK lysate to act as a reference point for spontaneous aggregation of 0N4R^P301S and for transfection related toxicity. The dilution of test compounds is performed using the Bravo liquid handling platform (Agilent). The control is DMSO in the absence of any test compound. Briefly, 1 μl of each test compound (5 mM stock) in the 384-well test plate was transferred to a 384-well plate (Greiner Cat No 781280) containing 61.5 μl of complete DMEM to generate a working stock of compounds at 80 μM. […]

T2 sequence (P10636 1-383 isoform P10636-6 P243S): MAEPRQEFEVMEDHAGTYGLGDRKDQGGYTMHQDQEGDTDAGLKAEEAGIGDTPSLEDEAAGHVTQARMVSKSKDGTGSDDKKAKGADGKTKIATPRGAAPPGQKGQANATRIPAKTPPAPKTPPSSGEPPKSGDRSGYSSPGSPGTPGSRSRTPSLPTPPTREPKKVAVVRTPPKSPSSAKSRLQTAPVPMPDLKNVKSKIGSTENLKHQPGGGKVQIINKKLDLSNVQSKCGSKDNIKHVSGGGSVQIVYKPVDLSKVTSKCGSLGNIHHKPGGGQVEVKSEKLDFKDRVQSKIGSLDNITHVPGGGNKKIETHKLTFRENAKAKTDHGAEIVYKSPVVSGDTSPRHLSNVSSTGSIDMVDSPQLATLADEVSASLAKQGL

Compound | AD Tau Aggregates (% control)
CC(=O)Nc1ncc2c(-c3ccccc3)nn(CC3CCCCC3)c2n1 [Compound 280] | 90
O=c1nc2c(ccn2C(F)(F)F)cn1-c1nc(N2Cc3ccccc3C2)oc1-c1ccc(F)cc1 [Compound 242] | 99
Cc1cc(-c2nc(-n3cc4ccn(C5CC5)c4nc3=O)c(-c3ccc(F)c(F)c3)o2)ncc1F [Compound 234] | 85
Cc1ccnn1-c1nc(-n2cc3ccn(C(F)(F)F)c3nc2=O)c(-c2ccc(F)cc2)o1 [Compound 240] | 95
CC(=O)Nc1ncc2c(-c3ccccc3C)nn(Cc3ccccc3)c2n1 [Compound 266] | 98
Cc1ccn(-c2nc(-n3cc4ccn(C(F)(F)F)c4nc3=O)c(-c3ccc(F)cc3)o2)n1 [Compound 241] | 98

Now from value to molecule:

AD Tau Aggregates (% control) | Compound
95 | CNC(=O)c1ncc2c(-c3ccccc3)nn(Cc3ccccc3)c2n1 [Compound 248]
99 | CNC(=O)c1ncc2c(-c3ccc(F)cc3)nn(Cc3ccnc(F)c3)c2n1 [Compound 259]
95 | CNC(=O)c1ncc2c(-c3ccc(F)cc3)nn(Cc3cccc(F)c3)c2n1 [Compound 260]
110 | CC(=O)Nc1ncc2c(-c3ccccc3)nn(C(C)c3ccccc3)c2n1 (centres unmarked) [Compound 265]
100 | CNC(=O)c1ncc2c(-c3ccccc3Cl)nn(-c3ccc(F)cc3)c2n1 [Compound 244]
100 | CNC(=O)c1ncc2c(-c3cccc4c3OC(F)(F)O4)nn(Cc3ccccc3)c2n1 [Compound 254]
87 | CNC(=O)c1ncc2c(-c3ccc(F)cc3)nn(Cc3ccc(F)cc3)c2n1 [Compound 261]
120 | CNC(=O)c1ncc2c(-c3ccccc3)nn(-c3ccc(F)cc3)c2n1 [Compound 246]
92 | CC(=O)Nc1ncc2c(-c3ccccc3)nn(Cc3ccncc3)c2n1 [Compound 279]
96 | CNC(=O)c1ncc2c(-c3cc4c(cnn4C)cc3F)nn(Cc3ccccc3)c2n1 [Compound 253]
120 | CCc1ccccc1-c1nn(-c2ccc(F)cc2)c2nc(C(=O)NC)ncc12 [Compound 245]
91 | CC(=O)Nc1ncc2c(-c3ccccc3)nn(Cc3cncc(F)c3)c2n1 [Compound 267]
110 | CNC(=O)c1ncc2c(-c3ccc(F)cc3)nn(CC3CCCCC3)c2n1 [Compound 258]
94 | COC(=O)Nc1ncc2c(-c3ccccc3)nn(-c3ccccc3)c2n1 [Compound 274]
100 | CCC(=O)Nc1ncc2c(-c3ccccc3)nn(Cc3ccc(OC)cc3)c2n1 [Compound 269]
